Legend:
[1] = tested on: patients with elevated triglyceride levels on statin therapy; test: REDUCE-IT total (first and subsequent) ischemic events (Example 3; negative binomial, Wei-Lin-Weissfeld, Andersen-Gill, joint frailty models); format: in vivo, human; design: total (first and subsequent) ischemic events for primary composite endpoint, relative risk reduction / first events, reduction / second events, reduction / third events, reduction / fourth or more events, reduction: concentration or dose not given beside the values; conditions: for HR (95% CI), Key Secondary Composite Endpoint / HR (95% CI), Primary Composite Endpoint / RR (95% CI), Key Secondary Composite Endpoint, total events / RR (95% CI), Primary Composite Endpoint, total events: full dataset; for RR (95% CI), Key Secondary Composite Endpoint, total events / RR (95% CI), Primary Composite Endpoint, total events: icosapent ethyl vs placebo
Excerpt: The following study was a multi-center, placebo-controlled clinical trial the details of which are described above in Example 1, the REDUCE-IT design. […] The main outcomes were total primary composite endpoint events defined as cardiovascular death, nonfatal myocardial infarction, nonfatal stroke, coronary revascularization, or hospitalization for unstable angina and total key secondary composite endpoint events defined as cardiovascular death, nonfatal myocardial infarction, or nonfatal stroke. In the context of this study, total events refer to any first event as well as any subsequent event. Differences in total events were determined using other statistical models, including Andersen-Gill, Wei-Lin-Weisfeld (Li and Lagakos), both pre-specified, and a post hoc and joint-frailty analysis.
For the present prespecified analysis, the primary outcome was the total of first plus subsequent ischemic events consisting of the composite of cardiovascular death, nonfatal myocardial infarction, nonfatal stroke, coronary revascularization, or hospitalization for unstable angina. […] Exploratory analyses of the total of first and subsequent events were also performed for the key secondary composite endpoint.
Baseline characteristics were compared between treatment groups using the chi-squared test for categorical variables and the Wilcoxon rank sum test for continuous variables. There are several methods for analyzing first and subsequent (recurrent) event data. As a pre-specified statistical method, a negative binomial regression was used to calculate rates and rate ratios for total cardiovascular events, which accounts for the variability in each patient's risk of events. As pre-specified supportive analyses, the modified Wei-Lin-Weissfeld method (Li and Lagakos modification) was used to calculate hazard ratios (HRs) for the time to the first event, second event, or third event. An additional pre-specified analysis, the Andersen-Gill model using a Cox proportional-hazard with the counting-process formulation was performed to model the total events. In addition, in order to account for informative censoring due to cardiovascular death, the HR for total non-fatal events was calculated using a joint frailty model (See Rondeau V. Joint frailty models for recurring events and death using maximum penalized likelihood estimation: application on cancer events. Biostatistics. 2007; 8:708-21). The joint frailty model simultaneously estimates hazard functions for non-fatal and fatal CV events and takes into account the fact that patients who are prone to have nonfatal events have an elevated risk of a cardiovascular death. The application of the joint frailty model used a gamma distribution for the frailty term.
Statistical analyses using the full adjudicated endpoint events dataset without exclusions using this bundling approach were also determined.

[2] = REDUCE-IT change from baseline blood pressure (mixed effects model); format: in vivo, human; conditions: ITT
Description: Blood pressure was measured using a standardized process: • Patient sat for ≥5 minutes with feet flat on the floor and measurement arm supported so that the midpoint of the manometer cuff was at heart level; and • Used a mercury sphygmomanometer or automatic blood pressure device with an appropriately sized cuff with the bladder centered over the brachial artery.
Blood pressure was recorded to the nearest 2 mmHg mark on the manometer or to the nearest whole number on an automatic device. A blood pressure reading was repeated 1 to 2 minutes later, and the second reading recorded to the nearest 2 mmHg mark.
It is contemplated that a number of factors contribute to the significant reduction in the cardiovascular risk. Without intending to be bound by any particular theory, one of the contributing factors might relate to the dose and formulation of the icosapent ethyl administered to the patients, in marked contrast to previous studies of omega-3 fatty acid studies. An additional contributing factor could relate to the patients' blood pressure. […] These differences appear to be modest, but it is contemplated, that they might contribute to the benefits of icosapent ethyl. […]

[3] = Andersen-Gill (I) model, adjusted, vs placebo
[4] = Andersen-Gill (I) model, reduced dataset, vs placebo
[5] = Andersen-Gill (I) model, unadjusted, vs placebo
[6] = Andersen-Gill (II) model, adjusted, vs placebo
[7] = Andersen-Gill (II) model, reduced dataset, vs placebo
[8] = Andersen-Gill (II) model, unadjusted, vs placebo
[9] = Joint frailty model, reduced dataset, vs placebo
[10] = Modified WLW model, reduced dataset, vs placebo
[11] = Modified WLW, first event, adjusted, vs placebo
[12] = Modified WLW, first event, unadjusted, vs placebo
[13] = Modified WLW, second event, adjusted, vs placebo
[14] = Modified WLW, second event, unadjusted, vs placebo
[15] = Modified WLW, third event, adjusted, vs placebo
[16] = Modified WLW, third event, unadjusted, vs placebo
[17] = N = 4089, same-day multiple endpoints handled as a single event
[18] = Negative binomial model, adjusted for stratification factors
[19] = Negative binomial model, reduced dataset, vs placebo
[20] = Negative binomial model, unadjusted
[21] = Wei-Lin-Weissfeld model, Example 3
[22] = per 1000 patients treated for five years

CC/C=C\C/C=C\C/C=C\C/C=C\C/C=C\CCCC(=O)OCC [icosapent ethyl, eicosapentaenoic acid ethyl ester]
HR (95% CI), Key Secondary Composite Endpoint [1, 3]: 0.71 | HR (95% CI), Primary Composite Endpoint [1, 3]: 0.68 | Adjusted HR, key secondary composite endpoint, total events [1, 4]: 0.72 | Adjusted HR, primary composite endpoint, total events [1, 4]: 0.69 | Unadjusted HR, key secondary composite endpoint, total events [1, 4]: 0.72 | Unadjusted HR, primary composite endpoint, total events [1, 4]: 0.69 | HR (95% CI), Key Secondary Composite Endpoint [1, 5]: 0.71 | HR (95% CI), Primary Composite Endpoint [1, 5]: 0.68 | HR (95% CI), Key Secondary Composite Endpoint [1, 6]: 0.71 | HR (95% CI), Primary Composite Endpoint [1, 6]: 0.68 | Adjusted HR, key secondary composite endpoint, total events [1, 7]: 0.72 | Adjusted HR, primary composite endpoint, total events [1, 7]: 0.69 | Unadjusted HR, key secondary composite endpoint, total events [1, 7]: 0.72 | Unadjusted HR, primary composite endpoint, total events [1, 7]: 0.69 | HR (95% CI), Key Secondary Composite Endpoint [1, 8]: 0.71 | HR (95% CI), Primary Composite Endpoint [1, 8]: 0.68 | first events, reduction ([1]; Example 3): 25% | fourth or more events, reduction ([1]; Example 3): 48% | second events, reduction ([1]; Example 3): 32% | third events, reduction ([1]; Example 3): 31% | HR, Cardiovascular Death, key secondary endpoint, adjusted [1, 9]: 0.79 | HR, Cardiovascular Death, key secondary endpoint, unadjusted [1, 9]: 0.79 | HR, Cardiovascular Death, primary endpoint, adjusted [1, 9]: 0.80 | HR, Cardiovascular Death, primary endpoint, unadjusted [1, 9]: 0.80 | HR, Non-fatal Cardiovascular Event, key secondary endpoint, adjusted [1, 9]: 0.68 | HR, Non-fatal Cardiovascular Event, key secondary endpoint, unadjusted [1, 9]: 0.68 | HR, Non-fatal Cardiovascular Event, primary endpoint, adjusted [1, 9]: 0.67 | HR, Non-fatal Cardiovascular Event, primary endpoint, unadjusted [1, 9]: 0.66 | Adjusted HR, key secondary composite endpoint, first event [1, 10]: 0.74 | Adjusted HR, key secondary composite endpoint, second event [1, 10]: 0.75 | Adjusted HR, key secondary composite endpoint, third event [1, 10]: 0.79 | Adjusted HR, primary composite endpoint, first event [1, 10]: 0.75 | Adjusted HR, primary composite endpoint, second event [1, 10]: 0.68 | Adjusted HR, primary composite endpoint, third event [1, 10]: 0.69 | Unadjusted HR, key secondary composite endpoint, first event [1, 10]: 0.74 | Unadjusted HR, key secondary composite endpoint, second event [1, 10]: 0.75 | Unadjusted HR, key secondary composite endpoint, third event [1, 10]: 0.79 | Unadjusted HR, primary composite endpoint, first event [1, 10]: 0.76 | Unadjusted HR, primary composite endpoint, second event [1, 10]: 0.69 | Unadjusted HR, primary composite endpoint, third event [1, 10]: 0.69 | HR (95% CI), Key Secondary Composite Endpoint [1, 11]: 0.74 | HR (95% CI), Primary Composite Endpoint [1, 11]: 0.75 | HR (95% CI), Key Secondary Composite Endpoint [1, 12]: 0.74 | HR (95% CI), Primary Composite Endpoint [1, 12]: 0.76 | HR (95% CI), Key Secondary Composite Endpoint [1, 13]: 0.75 | HR (95% CI), Primary Composite Endpoint [1, 13]: 0.68 | HR (95% CI), Key Secondary Composite Endpoint [1, 14]: 0.75 | HR (95% CI), Primary Composite Endpoint [1, 14]: 0.69 | HR (95% CI), Key Secondary Composite Endpoint [1, 15]: 0.79 | HR (95% CI), Primary Composite Endpoint [1, 15]: 0.70 | HR (95% CI), Key Secondary Composite Endpoint [1, 16]: 0.79 | HR (95% CI), Primary Composite Endpoint [1, 16]: 0.70 | Key secondary endpoint: Total events before reduction, % of overall events ([1]; N = 4089): 42.0% | Primary endpoint: Total events before reduction, % of overall events ([1]; N = 4089): (40.7) % | Key secondary endpoint: Fatal events, % of overall events ([1]; N = 4089, after reduction): 45.0% | Key secondary endpoint: Non-fatal events, % of overall events ([1]; N = 4089, after reduction): 40.9% | Primary endpoint: Fatal events, % of overall events ([1]; N = 4089, after reduction): (45.0) % | Primary endpoint: Non-fatal events, % of overall events ([1]; N = 4089, after reduction): (40.4) % | Key secondary endpoint: Total events after reduction, % of overall events [1, 17]: 42.1% | Primary endpoint: Total events after reduction, % of overall events [1, 17]: (41.0) % | RR (95% CI), Key Secondary Composite Endpoint, total events [1, 18]: 0.71 | RR (95% CI), Primary Composite Endpoint, total events [1, 18]: 0.69 | Adjusted RR, key secondary composite endpoint, total events [1, 19]: 0.72 | Adjusted RR, primary composite endpoint, total events [1, 19]: 0.70 | Unadjusted RR, key secondary composite endpoint, total events [1, 19]: 0.71 | Unadjusted RR, primary composite endpoint, total events [1, 19]: 0.68 | RR (95% CI), Key Secondary Composite Endpoint, total events [1, 20]: 0.71 | RR (95% CI), Primary Composite Endpoint, total events [1, 20]: 0.67 | first occurrence of primary composite endpoint, HR [1, 21]: 0.75 | second occurrence of primary composite endpoint, HR [1, 21]: 0.68 | total (first and subsequent) ischemic events for primary composite endpoint, relative risk reduction ([1]; in vivo): 30% | cardiovascular deaths prevented [1, 22]: 12 | coronary revascularizations prevented [1, 22]: 76 | episodes of hospitalization for unstable angina prevented [1, 22]: 16 | myocardial infarctions prevented [1, 22]: 42 | strokes prevented [1, 22]: 14 | total primary endpoint events prevented [1, 22]: approximately 159 | total key secondary endpoint event rate ([1]; placebo 44): 32 per 1000 patient years | total (first and subsequent) primary endpoint event rate ([1]; placebo 89): 61 per 1000 patient years | total key secondary endpoint events, RR ([1]; vs placebo): 0.72 | total primary endpoint events, rate ratio (RR) ([1]; vs placebo): 0.70 | diastolic blood pressure, average placebo-corrected reduction from baseline [2]: 0.5 mm Hg | systolic blood pressure, average placebo-corrected reduction from baseline [2]: 1.3 mm Hg

Reference: US20200261391A1, “METHODS OF REDUCING THE RISK OF A CARDIOVASCULAR EVENT IN A STATIN-TREATED SUBJECT BY INCREASING SERUM AND PLASMA EPA AND DPA LEVELS” (Amarin Pharmaceuticals Ireland Limited, priority 2019, published 2020)
